Source: patent US6803386B2, “Prostacyclin derivative containing compositions and methods of using the same for the treatment of cancer” (United Therapeutics Corporation, priority 2002, dated 2004)

Assays:
[1] = test system: human amelanotic melanoma cell line (LOX); experiment: Collagen degradation inhibition assay (fluorescent-labeled Type I collagen matrix seeded with LOX cells); format: cell-based; details: LOX cells on Type I collagen matrix, dosages 10^−12 to 10^−3 M, n=4
[2] = test system: human amelanotic melanoma cell line (LOX)
Description: A live cell toxicity assay marketed as LIVE/DEAD Viability/Cytotoxicity Kit by Molecular Probes, Inc. of Eugene, Oreg., was obtained for the test. The assays were carried out in accordance with the manufacturers' instructions using the LOX cells. The LOX cells (10^4/well) were cultured and incubated in a carbon dioxide incubator at 37° C. overnight and then gently washed with PBS.
Calcein Am (2 μM), a fluorescent dye available from Molecular Probes, Inc. for staining live cells, was added to the LOX cells. The Calcein-stained LOX cells were incubated at room temperature for about an hour. […] A positive fluorescence signal from the assay indicates the presence of viable cells in the test sample with the strength of the signal being proportional to the number of viable cells present.
The live cell toxicity assay was carried out four times (n=4) for each test compound.

[3] = test system: human amelanotic melanoma cell line (LOX); experiment: Apoptosis assay (Vybrant Apoptosis Assay Kit #4, YO-PRO); format: cell-based; details: LOX cells, overnight incubation; dosages 10^−12 to 10^−3 M; n=4
Description: An apoptosis assay marketed as Vybrant Apoptosis Assay Kit #4 from Molecular Probes, Inc., was obtained for the test. […] The apoptosis assay was performed four times (n=4) for each test compound.

Compound: CCCCC[C@@H](O)CC[C@H]1[C@H](O)CC2Cc3c(cccc3OCC(=O)O)C[C@@H]21 (stereo partly drawn) [compound of Formula II, 9-Deoxy-2′,9α-methano-3-oxa-4,5,6-trinor-3,7-(1′,3′-interphenylene)-13,14-dihydro-PGF1]
- IC50 ([1]; Homo sapiens): 10 nM
- dosage at which collagen degradation activity by LOX cells was inhibited (lowest effective dosage) [1]: 2.5 nM
- dosage at which cell toxicity / inhibited cell viability was exhibited [2]: over 10^−6 M
- dosage at which a marked increase in the incidence of apoptosis was seen [3]: over 10^−4 M
